Data from PMC4983742 (ACS Medicinal Chemistry Letters, 2016).

target: T1, androgen receptor (AR) (Homo sapiens, UniProt P10275, T878A); type: cell-based; conditions: not given
T1 sequence (P10275 1-920 T878A): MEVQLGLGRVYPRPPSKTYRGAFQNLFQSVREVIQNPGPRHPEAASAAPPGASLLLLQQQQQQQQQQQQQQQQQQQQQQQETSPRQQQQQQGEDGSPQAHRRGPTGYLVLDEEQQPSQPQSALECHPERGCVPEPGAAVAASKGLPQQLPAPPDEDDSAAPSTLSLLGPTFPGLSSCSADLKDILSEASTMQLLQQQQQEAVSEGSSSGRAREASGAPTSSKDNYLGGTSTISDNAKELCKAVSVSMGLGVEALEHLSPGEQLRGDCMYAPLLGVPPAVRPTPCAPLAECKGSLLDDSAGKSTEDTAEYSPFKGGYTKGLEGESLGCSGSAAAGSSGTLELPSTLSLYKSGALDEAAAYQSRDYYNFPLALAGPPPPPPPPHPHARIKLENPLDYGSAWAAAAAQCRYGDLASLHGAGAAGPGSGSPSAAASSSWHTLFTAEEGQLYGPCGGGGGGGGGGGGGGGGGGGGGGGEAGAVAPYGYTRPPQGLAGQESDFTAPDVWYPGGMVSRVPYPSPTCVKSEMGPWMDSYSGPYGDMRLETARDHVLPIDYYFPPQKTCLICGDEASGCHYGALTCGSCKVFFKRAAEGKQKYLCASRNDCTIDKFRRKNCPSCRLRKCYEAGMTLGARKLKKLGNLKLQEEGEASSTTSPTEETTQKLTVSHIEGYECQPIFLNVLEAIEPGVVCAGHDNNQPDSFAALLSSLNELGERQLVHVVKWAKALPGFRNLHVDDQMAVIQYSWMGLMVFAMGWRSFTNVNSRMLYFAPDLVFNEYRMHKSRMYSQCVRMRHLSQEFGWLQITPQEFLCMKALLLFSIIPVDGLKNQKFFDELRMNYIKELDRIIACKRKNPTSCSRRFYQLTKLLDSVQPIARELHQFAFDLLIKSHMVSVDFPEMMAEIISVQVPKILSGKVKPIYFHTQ

fold less potent than enantiomer (1S,2R)-27	fold increase in activity relative to amide 5b [fold]	Structure (SMILES)
ca. 10 fold		Cc1ccc(Cl)cc1N1CCN(C(=O)[C@@H]2C[C@@H]2c2ccc(F)cc2)CC1 [(1R,2S)-27]
	1.3	Cc1ccccc1N1CCN(CCSCc2c(C)noc2C)CC1 [compound 6]

same assay, conditions: C4-2-PSA-rl cells, 1 nM R1881

Structure (SMILES)	activity in the PSA luciferase assay, in words
Cc1ccccc1N1CCN(C(=O)[C@H]2C[C@@H]2c2ccccc2)CC1 (relative stereo) [compound 16]	essentially inactive
Cc1noc(C)c1CSCC(=O)N1CCN(c2ccccc2)CC1 [5a]	deleted activity
Cc1cccc(N2CCN(C(=O)CSCc3c(C)noc3C)CC2)c1 [5c]	loss of activity
Cc1ccc(N2CCN(C(=O)CSCc3c(C)noc3C)CC2)cc1 [5d]	loss of activity
COc1ccccc1N1CCN(C(=O)CSCc2c(C)noc2C)CC1 [5h]	complete loss of activity
Cc1ccc(Cl)cc1N1CCN(C(=O)[C@H]2C[C@H]2c2ccc(F)cc2)CC1 [(1S,2R)-27]	substantially equipotent to the commercial AR antagonist, enzalutamide
Cc1ccccc1N1CCN(C(=O)CSc2ccccc2)CC1 [compound 9]	abolished activity
Cc1ccccc1N1CCN(C(=O)C#Cc2ccccc2)CC1 [compound 10]	essentially inactive
Cc1ccccc1N1CCN(C(=O)/C=C/c2ccccc2)CC1 [compound 11]	essentially inactive
Cc1ccccc1N1CCN(C(=O)C[S+]([O-])Cc2c(C)noc2C)CC1 (stereo not shown) [compound 12]	inactive

Other lines, results leading:

activity in the PSA luciferase assay, in words	Structure (SMILES)
abolished activity	Cc1ccccc1N1CCN(C(=O)COCc2c(C)noc2C)CC1 [18a]
abolished activity	Cc1ccccc1N1CCN(C(=O)CN(C)Cc2ccccc2)CC1 [18b]
inactive	Cc1ccccc1N1CCN(C(=O)NCSCc2c(C)noc2C)CC1 [20a]
inactive	Cc1ccccc1N1CCC(OC(=O)NCSCc2c(C)noc2C)CC1 [20b]
